From BindingDB's records for doi:10.1124/jpet.104.081711 (Taisho Pharmaceutical, 2005)

Assays:
[1] = target: T1, 5-hydroxytryptamine receptor 1A (Homo sapiens, UniProt P08908)
T1 sequence (P08908 whole entry): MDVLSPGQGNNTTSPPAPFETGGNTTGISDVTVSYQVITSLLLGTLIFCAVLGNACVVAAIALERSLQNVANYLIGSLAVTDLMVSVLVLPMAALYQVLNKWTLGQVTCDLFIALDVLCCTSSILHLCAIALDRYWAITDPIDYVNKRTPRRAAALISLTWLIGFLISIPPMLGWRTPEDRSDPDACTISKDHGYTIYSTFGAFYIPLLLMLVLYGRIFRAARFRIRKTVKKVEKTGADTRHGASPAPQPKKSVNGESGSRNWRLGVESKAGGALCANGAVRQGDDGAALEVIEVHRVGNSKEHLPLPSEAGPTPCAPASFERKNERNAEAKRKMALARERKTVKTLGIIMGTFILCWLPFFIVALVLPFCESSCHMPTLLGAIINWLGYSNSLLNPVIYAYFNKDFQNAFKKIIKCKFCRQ

[2] = target: 5-hydroxytryptamine receptor 2B (Homo sapiens, UniProt P41595)
5-hydroxytryptamine receptor 2B, sequence (P41595 whole entry): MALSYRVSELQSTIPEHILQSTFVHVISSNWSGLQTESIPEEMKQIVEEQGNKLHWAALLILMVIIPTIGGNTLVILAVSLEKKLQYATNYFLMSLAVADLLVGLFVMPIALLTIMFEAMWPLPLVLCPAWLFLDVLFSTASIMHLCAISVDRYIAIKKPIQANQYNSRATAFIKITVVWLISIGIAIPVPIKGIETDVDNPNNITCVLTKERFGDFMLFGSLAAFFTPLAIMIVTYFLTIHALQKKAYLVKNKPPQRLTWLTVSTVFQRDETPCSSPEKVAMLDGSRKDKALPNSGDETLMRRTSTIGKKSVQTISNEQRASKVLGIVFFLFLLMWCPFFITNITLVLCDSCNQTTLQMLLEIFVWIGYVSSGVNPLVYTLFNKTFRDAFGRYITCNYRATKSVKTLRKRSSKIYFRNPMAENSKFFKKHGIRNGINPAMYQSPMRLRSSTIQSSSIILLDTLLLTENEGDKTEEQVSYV

[3] = target: Melanin-concentrating hormone receptor 1 (Homo sapiens, UniProt Q99705)
Melanin-concentrating hormone receptor 1, sequence (Q99705 as listed by the source): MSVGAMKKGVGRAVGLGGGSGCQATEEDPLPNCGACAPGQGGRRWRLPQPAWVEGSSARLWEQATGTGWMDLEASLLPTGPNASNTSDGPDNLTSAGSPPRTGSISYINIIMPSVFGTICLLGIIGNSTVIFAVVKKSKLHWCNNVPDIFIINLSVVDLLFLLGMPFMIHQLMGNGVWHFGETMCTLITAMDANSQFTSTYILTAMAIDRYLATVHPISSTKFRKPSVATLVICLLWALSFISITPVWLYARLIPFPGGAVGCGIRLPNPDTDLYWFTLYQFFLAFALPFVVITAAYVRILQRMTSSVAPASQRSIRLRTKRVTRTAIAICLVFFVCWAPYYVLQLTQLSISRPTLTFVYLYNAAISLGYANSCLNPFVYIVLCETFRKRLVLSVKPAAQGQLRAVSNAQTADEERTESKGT

Ki [1] [nM] | Ki [2] [nM] | Ki [3] [nM] | SMILES
16.9 | 9.66 |  | CN(C)c1nc(N[C@H]2CC[C@@H](NC(=O)c3ccc(F)c(F)c3)CC2)nc2ccccc12 [ATC0175]
 | 266 | 15.7 | CN(C)c1nc(N[C@H]2CC[C@@H](NCCc3ccc(Br)cc3OC(F)(F)F)CC2)nc2ccccc12 [CAS_510732-84-0]
